Results from BigSolDB 2.1.

O=C(NC(Cc1cc(=O)[nH]c2ccccc12)C(=O)O)c1ccc(Cl)cc1 (stereo not given)
solubility (mole fraction)
Settings	278.15 K	283.15 K	288.15 K	293.15 K	298.15 K	303.15 K	308.15 K	313.15 K	318.15 K
in ethanol	6.26e-05	6.92e-05	7.65e-05	8.61e-05	9.66e-05	0.000107	0.000118	0.000131	0.000143
in isopropanol	2.41e-05	3.02e-05	3.87e-05	4.8e-05	5.92e-05	7.31e-05	8.91e-05	0.000107	0.000129
in n-propanol	4.25e-05	5.08e-05	6e-05	7.03e-05	8.1e-05	9.38e-05	0.000107	0.000123	0.00014
in propylene glycol	0.000182	0.000192	0.000207	0.000225	0.000247	0.000269	0.000293	0.000319	0.00035
in water	3.46e-07	4.26e-07	5.29e-07	6.84e-07	8.68e-07	1.08e-06	1.3e-06	1.56e-06	1.87e-06
